Reference: patent US7488855B2 (CJ Corporation, priority 2004, dated 2009)
In brackets after ≈: the same amount, converted by molar mass.

Assay: Solubility in ethyl acetate by fractionation and phase separation, HPLC analysis of the solvent layer
Format: physicochemical

solubility at 2 h (organic solvent or mixture)	SMILES	solubility in EA (ethyl acetate, mixture 10:1:2:2 dissolved at 30-100 g/L 1,3-propanediol, left alone for 2 hours, upper solvent layer analysed by HPLC)
	CC(O)CO (centres unmarked) [1,2-propanediol]	5000 to 7000 µg/mL
3000 to 6000 µg/mL (≈ 32.6 to 65.2 mM)	OCC(O)CO [glycerol]	
